Data as given in DBAASP.
In brackets after ≈: the same amount, converted by molar mass.

Key:
Experiment in all cases: ≥ marks a high value that may be exact or a test limit, other limits are often not marked, values filed in µg/mL are converted to µM
[1] = test system: Streptococcus pyogenes M1T1 5448
[2] = test system: Pseudomonas aeruginosa PAO1
Escherichia coli BL21 = test system: Escherichia coli BL21
[3] = test system: Candida albicans ATCC 90028
[4] = test system: Pseudomonas aeruginosa ATCC 27853
[5] = test system: Staphylococcus aureus ATCC 25923
[6] = test system: Cryptococcus neoformans B3501
[7] = test system: Klebsiella pneumoniae ATCC 13833
[8] = test system: Escherichia coli ATCC 25922
Escherichia coli = test system: Escherichia coli
[9] = test system: Shigella dysenteriae ATCC 9752
Serratia marcescens = test system: Serratia marcescens
[10] = test system: Micrococcus luteus ATCC 4698
[11] = test system: Pseudomonas aeruginosa ATCC 9027
[12] = test system: Salmonella enterica subsp. enterica serovar Typhimurium ATCC 14028
[13] = test system: Bacillus subtilis KCTC 1021
[14] = test system: Klebsiella pneumoniae ATCC 10031
Aureobasidium pullulans = test system: Aureobasidium pullulans
[15] = test system: Staphylococcus aureus ATCC 9144
[16] = test system: Corynebacterium glutamicum ATCC 13032
[17] = test system: Candida albicans ATCC 10231
[18] = test system: Staphylococcus aureus 209P
Escherichia coli C600 = test system: Escherichia coli C600
[19] = test system: Staphylococcus aureus USA 300

CC[C@H](C)[C@H](NC(=O)[C@H](CCCN=C(N)N)NC(=O)CNC(=O)[C@@H](NC(=O)[C@H](CCCCN)NC(=O)[C@H](CCCN=C(N)N)NC(=O)[C@@H](NC(=O)[C@H](Cc1ccc(O)cc1)NC(=O)[C@H](CCCN=C(N)N)NC(=O)[C@H](CCCN=C(N)N)NC(=O)[C@H](CC(C)C)NC(=O)[C@H](CCC(=O)O)NC(=O)[C@H](CCCCN)NC(=O)[C@H](C)NC(=O)[C@@H](NC(=O)[C@H](CCCN=C(N)N)NC(=O)[C@H](CC(N)=O)NC(=O)[C@@H](NC(=O)CNC(=O)[C@H](C)N)[C@@H](C)O)[C@@H](C)CC)[C@@H](C)CC)C(C)C)C(=O)N[C@@H](C)C(=O)N[C@@H](CCCN=C(N)N)C(=O)N[C@@H](CCCCN)C(=O)N[C@@H](Cc1c[nH]c2ccccc12)C(=O)N[C@@H](Cc1c[nH]c2ccccc12)C(=O)O [AGTNRIAKELRRYIRKVGRIARKWW] gave an MIC [1] of 1 µM (≈ 3.1 µg/mL), an MIC [2] of 8 µM (≈ 24.8 µg/mL) and an MIC (Escherichia coli BL21) of 0.25 µM (≈ 0.775 µg/mL).

CC[C@H](C)[C@H](NC(=O)[C@H](Cc1cnc[nH]1)NC(=O)[C@H](C)NC(=O)[C@H](Cc1ccc(O)cc1)NC(=O)[C@@H](NC(=O)[C@H](CCCN=C(N)N)NC(=O)[C@H](Cc1ccccc1)NC(=O)[C@H](CC(C)C)NC(=O)[C@H](CCCN=C(N)N)NC(=O)[C@H](CCCCN)NC(=O)[C@H](CC(C)C)NC(=O)[C@@H](NC(=O)[C@@H](NC(=O)[C@H](CCCCN)NC(=O)[C@H](C)NC(=O)[C@@H](NC(=O)[C@H](CO)NC(=O)[C@H](CCSC)NC(=O)[C@@H](N)Cc1ccccc1)C(C)C)[C@@H](C)O)[C@@H](C)CC)C(C)C)C(=O)N[C@@H](Cc1ccc(O)cc1)C(N)=O [FMSVAKTILKRLFRVYAHIY] gave an MIC [3] of 8 µM (≈ 19.6 µg/mL), an MIC [4] of 8 µM (≈ 19.6 µg/mL) and an MIC [5] of 4 µM (≈ 9.82 µg/mL). It also gave an MIC [6] of 2 µM (≈ 4.91 µg/mL), an MIC [7] of 4 µM (≈ 9.82 µg/mL) and an MIC [8] of 4 µM (≈ 9.82 µg/mL).

In the case of CC[C@H](C)[C@H](NC(=O)CN)C(=O)N[C@@H](CC(C)C)C(=O)N[C@@H](CC(=O)O)C(=O)N[C@H](C(=O)N[C@@H](CC(C)C)C(=O)N[C@@H](CCCCN)C(=O)N[C@@H](CCC(N)=O)C(=O)N[C@@H](Cc1ccccc1)C(=O)N[C@@H](C)C(=O)N[C@@H](CCCCN)C(=O)NCC(=O)N[C@H](C(=O)NCC(=O)N[C@@H](CCCCN)C(=O)N[C@@H](CC(=O)O)C(=O)N[C@@H](CC(C)C)C(=O)N[C@H](C(=O)N[C@@H](CCCCN)C(=O)NCC(=O)N[C@@H](C)C(=O)N[C@@H](C)C(=O)N[C@@H](CCC(N)=O)C(=O)O)C(C)C)C(C)C)[C@@H](C)O [GILDTLKQFAKGVGKDLVKGAAQ], the MIC (Escherichia coli) is reported as > 84.8 µM, the MIC [9] is reported as ≥ 84.8 µM and the MIC (Serratia marcescens) is reported as ≥ 84.8 µM. The MIC [10] was ≥ 84.8 µM, the MIC [11] was > 84.8 µM and the MIC [12] was > 84.8 µM. For the same compound, the MIC [13] was ≥ 84.8 µM and the MIC [14] was ≥ 84.8 µM.

With CC(C)[C@H](NC(=O)[C@@H](NC(=O)[C@H](CCCN=C(N)N)NC(=O)[C@H](CCCN=C(N)N)NC(=O)[C@H](Cc1c[nH]c2ccccc12)NC(=O)[C@H](Cc1c[nH]c2ccccc12)NC(=O)CN)[C@@H](C)O)C(=O)N[C@@H](C)C(=O)N[C@@H](CCCCN)C(=O)N[C@@H](C)C(=O)N[C@@H](CCCN=C(N)N)C(=O)N[C@@H](CCCCN)C(N)=O [GWWRRTVAKARK] the MIC [4] was 6.3 µM (≈ 9.54 µg/mL), the MIC (Aureobasidium pullulans) was ≥ 50 µM and the MIC [15] was ≥ 100 µM. The MIC [16] was 1.6 µM (≈ 2.42 µg/mL), the MIC [8] was 12.5 µM (≈ 18.9 µg/mL) and the MIC [17] was 25 µM (≈ 37.8 µg/mL).

For CC[C@H](C)[C@@H]1NC(=O)CNC(=O)[C@H](CCCN=C(N)N)NC(=O)[C@H](CCCN=C(N)N)NC(=O)[C@@H]2CSSC[C@H](NC1=O)C(=O)N[C@@H](Cc1ccc(O)cc1)C(=O)N[C@@H](CCCN=C(N)N)C(=O)N[C@@H](CCCN=C(N)N)C(=O)N[C@H](C(=O)N[C@@H](CCCN=C(N)N)C(=O)O)CSSC[C@H](NC(=O)[C@H](Cc1c[nH]c3ccccc13)NC(=O)[C@@H](N)CCCCN)C(=O)N[C@@H](Cc1ccccc1)C(=O)N[C@@H](CCCN=C(N)N)C(=O)N[C@@H](C(C)C)C(=O)N2 [KWCFRVCRRGICYRRCR], the MIC [2] was 6.25 µM (≈ 14.1 µg/mL), the MIC [18] was 3.13 µM (≈ 7.07 µg/mL) and the MIC (Escherichia coli C600) was 1.56 µM (≈ 3.52 µg/mL).

Compound CC[C@H](C)[C@@H]1NC(=O)CNC(=O)[C@H](CCCN=C(N)N)NC(=O)[C@H](CO)NC(=O)[C@@H]2CSSC[C@H](NC1=O)C(=O)N[C@@H](Cc1ccc(O)cc1)C(=O)N[C@@H](CCCN=C(N)N)C(=O)N[C@@H](CCCN=C(N)N)C(=O)N[C@H](C(=O)N[C@@H](CCCN=C(N)N)C(=O)O)CSSC[C@H](NC(=O)[C@H](Cc1c[nH]c3ccccc13)NC(=O)[C@@H](N)CCCCN)C(=O)N[C@@H](Cc1ccccc1)C(=O)N[C@@H](CCCN=C(N)N)C(=O)N[C@@H](C(C)C)C(=O)N2 [KWCFRVCSRGICYRRCR] has an MIC [2] of 3.13 µM (≈ 6.85 µg/mL), an MIC [18] of 3.13 µM (≈ 6.85 µg/mL) and an MIC (Escherichia coli C600) of 0.8 µM (≈ 1.75 µg/mL).

With CC[C@H](C)[C@H](NC(=O)[C@H](CCCN=C(N)N)NC(=O)[C@H](CC(N)=O)NC(=O)[C@H](Cc1ccccc1)NC(=O)[C@H](CC(C)C)NC(=O)CNC(=O)[C@H](CCSC)NC(=O)[C@@H](N)CC(C)C)C(=O)N[C@H](C(=O)N[C@@H](CCCN=C(N)N)C(=O)N[C@@H](CCCCN)C(=O)N[C@H](C(=O)N[C@H](C(=O)N[C@@H](CCCCN)C(=O)N[C@@H](CC(C)C)C(=O)N[C@@H](Cc1ccccc1)C(=O)N[C@@H](CC(N)=O)C(N)=O)C(C)C)C(C)C)[C@@H](C)CC [LMGLFNRIIRKVVKLFN] the MIC [3] was 16 µM (≈ 33 µg/mL), the MIC [4] was 16 µM (≈ 33 µg/mL) and the MIC [5] was 8 µM (≈ 16.5 µg/mL). It also gave an MIC [6] of 4 µM (≈ 8.24 µg/mL), an MIC [7] of 8 µM (≈ 16.5 µg/mL) and an MIC [8] of 8 µM (≈ 16.5 µg/mL).

With CC[C@H](C)[C@H](NC(=O)[C@H](CCCN=C(N)N)NC(=O)CNC(=O)[C@@H](NC(=O)[C@H](CCCCN)NC(=O)[C@H](CCCN=C(N)N)NC(=O)[C@@H](NC(=O)[C@H](Cc1ccc(O)cc1)NC(=O)[C@H](CCCN=C(N)N)NC(=O)[C@H](CCCN=C(N)N)NC(=O)[C@H](CC(C)C)NC(=O)[C@H](CCC(=O)O)NC(=O)[C@H](CCCCN)NC(=O)[C@H](C)NC(=O)[C@@H](NC(=O)[C@H](CCCN=C(N)N)NC(=O)[C@H](CC(N)=O)NC(=O)[C@@H](NC(=O)CNC(=O)[C@@H](N)Cc1c[nH]c2ccccc12)[C@@H](C)O)[C@@H](C)CC)[C@@H](C)CC)C(C)C)C(=O)N[C@@H](C)C(=O)N[C@@H](CCCN=C(N)N)C(=O)N[C@@H](CCCCN)C(=O)N[C@@H](C)C(=O)N[C@@H](Cc1c[nH]c2ccccc12)C(=O)O [WGTNRIAKELRRYIRKVGRIARKAW] the MIC [1] was 0.25 µM (≈ 0.775 µg/mL), the MIC [2] was 8 µM (≈ 24.8 µg/mL) and the MIC [19] was 16 µM (≈ 49.6 µg/mL). It also gave an MIC (Escherichia coli BL21) of 1 µM (≈ 3.1 µg/mL).
